Marks after values point to notes of the source that are not given here.
Key:
[1] = Formation of ternary complex encapsulating various substances: particle diameter by DLS or FCS; format: physicochemical; conditions: for Particle diameter of encapsulated substance: substance alone
Protocol: Ternary complexes were formed using not only the GFP protein but also a small molecule medicine, a peptide, an adeno-associated virus, an inorganic particle, a nucleic acid, and the like, and the particle diameter change was measured. As the measurement method, dynamic light scattering (DLS) or fluorescence correlation spectroscopy (FCS) was used.
Temperature: 25° C., measurement time: 10 seconds, number of integrations: 10 times
The method for measuring dynamic light scattering is as follows. Dynamic Light Scattering (DLS Zetasizer Nano ZS (manufactured by Malvern Instruments) was used to carry out DLS measurement at a detection angle of […] and a temperature of 25° C. A He—Ne laser (633 nm) was used as the incident beam. Each complex solution was added to a small glass cuvette (capacity: 12 μL, ZEN2112, manufactured by Malvern Instruments). The data obtained from the decay rate in the photon correlation function was analyzed by the Cumulant method, and then the hydrodynamic diameter (the arithmetic mean diameter based on the number of complexes) of each complex was calculated by the above Einstein-Stokes equation. […]
The pitavastatin solution and the tannic acid solution were mixed to adjust a pitavastatin/TA solution. Then, PEG-P[Lys(FPBA)10]20 was added to the pitavastatin/TA solution to adjust a pitavastatin/TA/PEG-P[Lys(FPBA)10]20 (a pitavastatin ternary complex) solution. […]

[2] = Bonding force by alizarin red method, PEG-P[Lys(FPBA)10]20; format: binding; conditions: for relative equilibrium constant with PEG10k-P[Lys(FPBA)10]20: alizarin red method, Ex 468 nm/Em 572 nm
Protocol: The bonding force was evaluated by the alizarin red method, which has been established as a method for quantifying the bonding force between boronic acid and the diol structure. The principle of the alizarin red method is briefly shown below by taking the method carried out in present Examples as an example.
[Final Concentrations of GFP, TA, PEG-FPBA, and PEG-P[Lys(FPBA)10]20] • Solution A: ARS (9.0×10^−6 M) • Solution B: ARS (9.0×10^−6 M)+PEG-FPBA (FPBA concentration: 2.0×10^−3 M) • Solution C: ARS (9.0×10^−6 M)+PEG-P[Lys(FPBA)10]20 (FPBA concentration: 2.0×10^−3 M) • Solution D: ARS (9.0×10^−6 M)+PEG-FPBA (FPBA concentration: 2.0×10^−3 M)+tannic acid (diol concentration=5.0×10^−4 M) • Solution E: ARS (9.0×10^−6 M)+PEG-FPBA (2.0×10^−3 M)+gallic acid (diol concentration=5.0×10^−4 M) • Solution F: ARS (9.0×10^−6 M)+PEG-P[Lys(FPBA)10]20 (FPBA concentration: 2.0×10^−3 M)+tannic acid (diol concentration=5.0×10^−4 M) • Solution G: ARS (9.0×10^−6 M)+PEG-P[Lys(FPBA)10]20 (FPBA concentration: 2.0×10^−3 M)+gallic acid (diol concentration=5.0×10^−4 M)
(§1) Solution A, and Solution B or Solution C were mixed in various ratios and the fluorescence measurement was performed (Ex=468 nm, Em=572 nm) using a disposable cell. After substituting the obtained fluorescence intensity and the concentration of each FPBA into the following expression (1) and creating a calibration curve by the least squares method, the equilibrium constant K0 of the ARS-FPBA system was calculated from the slope of the calibration curve. Next, Solution B or Solution C was mixed with Solution D, E, F, or G containing each diol compound in various ratios in the combination of B+D, B+E, C+F, and C+G, and the fluorescence measurement was performed (Ex=468 nm, Em=572 nm) using a disposable cell. After substituting the obtained fluorescence intensity and the concentration of each diol compound into the following expression (2) and creating a calibration curve by the least squares method, the equilibrium constant K1 of each diol compound-BPA system was calculated from the slope of the calibration curve. The equilibrium constant obtained from the calibration curve is shown in Table 2 as a relative equilibrium constant.
[formula] • [L0]=Concentration of FPBA added • [S0]=Concentration of diol added • [I0]=Concentration of ARS
ΔIf=Ifs−Ifa • ΔIfc=Reciprocal of intercept of graph created in ARS-FPBA system • Ifs=Fluorescence intensity of ARS-FPBA • Ifa=Fluorescence intensity of solution A • K0=Equilibrium constant of ARS-FPBA • Kf=Equilibrium constant of diol compound—equilibrium constant of FPBA

[3] = Bonding force by alizarin red method, PEG-FPBA; format: binding; conditions: Ex 468 nm/Em 572 nm
Protocol: The bonding force was evaluated by the alizarin red method, which has been established as a method for quantifying the bonding force between boronic acid and the diol structure. The principle of the alizarin red method is briefly shown below by taking the method carried out in present Examples as an example. […]
as §1, with “The equilibrium constant obtained from the calibration curve is shown in Table 2 as a relative equilibrium constant.” left out

[4] = Pharmacokinetics of rose bengal ternary complex (blood retention); format: in vivo, mouse; conditions: 3 hours after intravenous administration, plasma fluorescence
Protocol: [Final Concentrations of rose bengal, TA, and PEG-P[Lys(FPBA)10]20] • Rose bengal: 0.1 mg/mL • Tannic acid: 1.0 mg/mL • PEG-P[Lys(FBPA)10]20: 16.5 mg/mL
The rose bengal solution and the tannic acid solution were mixed to adjust a rose bengal/TA solution. Then, PEG-P[Lys(FPBA)10]20 was added to the rose bengal/TA solution to adjust a rose bengal solution, a rose bengal/TA complex solution, and a rose bengal/TA/PEG-P[Lys(FPBA)10]20 (a rose bengal ternary complex) solution.
200 μl of the prepared solution described above was intravenously administered to the tail vein of the model mouse. One to three hours after the sample administration, dissection was carried out to recover blood, which was subsequently subjected to centrifugation at 5,000 g×10 minutes at 20° C. to recover 100 μl of a plasma component, and 700 μl of Passive Lysis Buffer was added thereto. Then, the fluorescence intensities (Ex/Em: 520 nm/570 nm) of the plasma component and the administered sample were measured with Spark to evaluate the blood retention. In the figure, rose bengal/TA/PEG-P[Lys(FPBA)10]20 is denoted by a rose bengal/TA/polymer.

For `C=Cc1c(C)c2cc3nc(c(CC(=O)O)c4[nH]c(cc5nc(cc1[nH]2)C(C)=C5CC)c(C)c4C(=O)O)[C@@H](CCC(=O)O)[C@@H]3C` [Chlorine 6, Chlorin e6], the “Particle diameter of encapsulated substance” value [1] was 1.2 nm.
With `O=C(O)c1cc(O)c(O)c(O)c1` [Gallic acid] the “bonding constant with PEG-P[Lys(FPBA)10]20 as compared with PEG-FPBA” value [2] was 2.5 times, the “relative equilibrium constant with PEG10k-P[Lys(FPBA)10]20” value [2] was 5,112 and the “relative equilibrium constant with PEG-FPBA” value [3] was 2,030.
For `O=C([O-])C[C@H](O)C[C@H](O)/C=C/c1c(C2CC2)nc2ccccc2c1-c1ccc(F)cc1.O=C([O-])C[C@H](O)C[C@H](O)/C=C/c1c(C2CC2)nc2ccccc2c1-c1ccc(F)cc1.[Ca+2]` [Pitavastatin calcium], the “Particle diameter of encapsulated substance” value [1] was “Aggregated” and the “Particle diameter of encapsulated substance” value ([1]; listed as pitavastatin) was 4586 nm.
With `O=C(O)c1c(Cl)c(Cl)c(Cl)c(Cl)c1-c1c2cc(I)c(=O)c(I)c-2oc2c(I)c(O)c(I)cc12` [Rose bengal] the “Particle diameter of encapsulated substance” value [1] was 0.7 nm and the concentration in blood [4] was “about 0.22%”.
With `O=C(OC[C@H]1O[C@@H](OC(=O)c2cc(O)c(O)c(OC(=O)c3cc(O)c(O)c(O)c3)c2)[C@H](OC(=O)c2cc(O)c(O)c(OC(=O)c3cc(O)c(O)c(O)c3)c2)[C@@H](OC(=O)c2cc(O)c(O)c(OC(=O)c3cc(O)c(O)c(O)c3)c2)[C@@H]1OC(=O)c1cc(O)c(O)c(OC(=O)c2cc(O)c(O)c(O)c2)c1)c1cc(O)c(O)c(OC(=O)c2cc(O)c(O)c(O)c2)c1` [Tannic acid (TA), Tannic acid] the “bonding constant with PEG-P[Lys(FPBA)10]20 as compared with PEG-FPBA” value [2] was 5 times, the “relative equilibrium constant with PEG10k-P[Lys(FPBA)10]20” value [2] was 8,827 and the “relative equilibrium constant with PEG-FPBA” value [3] was 1,877.
In the case of Bleomycin sulfate, the “Particle diameter of encapsulated substance” value [1] is reported as 0.6 nm.
In the case of Gelonin, the “Particle diameter of encapsulated substance” value [1] is reported as 4.1 nm.
With “β-D-galactosidase: β-D-galactosidase (βGal): Mw 540 kDa, enzyme” the “Particle diameter of encapsulated substance” value [1] was 13.9 nm, the “Particle diameter of complex” value ([1]; ternary complex substance/TA/PEG-P[Lys(FPBA)10]20, dynamic light scattering method) was 42.8* nm and the “Polydiversity (PDI)” value ([1]; ternary complex, dynamic light scattering method) was 0.18.
